The subject of one assay is CCRF-CEM. The assay is described as follows: Cytotoxicity against human CCRF-CEM cells assessed as reduction in cell viability incubated for 72 hrs by XTT assay. The format is functional, cell-based.
A further assay relates to CEM-VLB. Nature of the assay: Cytotoxicity against human CEM-VLB cells assessed as reduction in cell viability incubated for 72 hrs by XTT assay. The format is functional, cell-based.
The test system of a further assay is NCI-H1650. Nature of the assay: Cytotoxicity against human NCI-H1650 cells assessed as reduction in cell viability incubated for 72 hrs by XTT assay. In kind it is functional, cell-based. Conditions: NCI-H1650, 72 h.
The next assay relates to HCT-116. The assay is described as follows: Cytotoxicity against human HCT-116 cells assessed as reduction in cell viability incubated for 72 hrs by XTT assay. Conditions: HCT-116, 72 h. In kind it is functional, cell-based.
The next assay deals with NCI-H460. The assay is described as follows: Cytotoxicity against human NCI-H460 cells assessed as reduction in cell viability incubated for 72 hrs by XTT assay. In kind it is functional, cell-based. Conditions: NCI-H460, 72 h.
Assay [1] in a line: Cytotoxicity against human PacaS1 cells assessed as reduction in cell viability incubated for 72 hrs by XTT assay. Conditions: PacaS1, 72 h. The format is functional, cell-based.
Another assay concerns dsDNA. Nature of the assay: Induction of pBR322 DNA interstand crosslink at 1 to 20 uM incubated for 2 hrs by agarose gel electrophoresis assay. Conditions: dose 1-20 µM.

pIC50: −log10 of the molar value. The source made the active and inactive calls. The rule behind the calls is not given here.

Take `CC(C)NC(=O)OCc1c(COC(=O)NC(C)C)c2c3ccccc3c3ccccc3n2c1-c1ccc(F)cc1`: the pIC50 with CCRF-CEM is 5.39; in the assay with CEM-VLB, 5.50.
In the case of `OCc1c(CO)c2c3ccccc3c3ccccc3n2c1-c1ccc(F)cc1`, the negative-log IC50 (pIC50) in the assay with CCRF-CEM is 5.09; with CEM-VLB it was 5.19.
Turning to `CCc1c(CO)c(CO)c2c3ccccc3c3ccccc3n12`, the negative logarithm of the IC50 (pIC50) is 4.87 in the assay on NCI-H1650; 4.94 in the assay on HCT-116; 5.02 in the assay with NCI-H460; 5.13 in the assay with CCRF-CEM; 5.54 in the assay with CEM-VLB; 5.21 in assay [1].
As to `CCNC(=O)OCc1c(COC(=O)NCC)c2c3ccccc3c3ccccc3n2c1CC`, the pIC50 with NCI-H1650 was 4.99; in the assay with HCT-116, 5.07; in the assay with NCI-H460 it was 5.04; with CCRF-CEM, 5.72; with CEM-VLB it was 5.77; in assay [1], 5.30.
`CCNC(=O)OCc1c(COC(=O)NCC)c2c3ccccc3c3ccccc3n2c1-c1ccc(F)cc1`: the pIC50 with CCRF-CEM and in the assay with CEM-VLB was 5.47 throughout.
Regarding `CCNC(=O)OCc1c(COC(=O)NCC)c2c3ccccc3c3ccccc3n2c1-c1ccccc1`, the pIC50 was 4.74 with NCI-H1650; 4.68 in the assay with HCT-116; 5.04 in the assay with NCI-H460; 5.39 with CCRF-CEM; 5.61 with CEM-VLB; 4.95 in assay [1].
In the case of `CCNC(=O)OCc1c(COC(=O)NCC)c2c3ccccc3c3ccccc3n2c1-c1ccc(OC)cc1`, the negative logarithm of the IC50 (pIC50) in the assay on CCRF-CEM was 5.52; in the assay with CEM-VLB, 5.55.
With `CC[C@]1(O)C[C@@H]2CN(CCc3c([nH]c4ccccc34)[C@@](C(=O)OC)(c3cc4c(cc3OC)N(C)[C@H]3[C@@](O)(C(=O)OC)[C@H](OC(C)=O)[C@]5(CC)C=CCN6CC[C@]43[C@@H]65)C2)C1` [VINBLASTINE], the pIC50 in the assay with CCRF-CEM is 8.85; in the assay with CEM-VLB, 6.41.
For `CCNC(=O)OCc1cn2c3ccccc3c3ccccc3c2c1COC(=O)NCC`, the pIC50 in the assay on NCI-H1650 is 5.24; in the assay on HCT-116 it was 5.74; in the assay with NCI-H460, 5.37; with CCRF-CEM it was 5.89; in the assay with CEM-VLB, 5.91; in assay [1], 5.36.
Turning to `CCc1c(COC(=O)NC(C)C)c(COC(=O)NC(C)C)c2c3ccccc3c3ccccc3n12`, the pIC50 in the assay with NCI-H1650 is 4.99; with HCT-116 it was 4.79; in the assay on NCI-H460 it was 5.30; in the assay with CCRF-CEM, 5.72; with CEM-VLB it was 5.81; in assay [1], 5.34.
On to `COc1ccc(-c2c(CO)c(CO)c3c4ccccc4c4ccccc4n23)cc1`, for which the figures for the negative logarithm of the IC50 (pIC50) in the assay on CCRF-CEM and in the assay on CEM-VLB were 5.20 and 5.32, respectively.
Consider `CCc1c(CO)c(CO)c2n1Cc1c(c3ccccc3c3ccccc13)C2`, for which the pIC50 in the assay on NCI-H1650 was 5.62; in the assay with HCT-116 it was 5.57; in the assay with NCI-H460 it was 5.88; in the assay with CCRF-CEM, 5.86; with CEM-VLB, 5.97; in assay [1], 5.58. Also, in the assay with dsDNA, the result was Active.
Turning to `CC(C)NC(=O)OCc1c(COC(=O)NC(C)C)c2c3ccccc3c3ccccc3n2c1-c1ccccc1`, the negative-log IC50 (pIC50) in the assay with NCI-H1650 is 4.79; with HCT-116, 4.79; in the assay on NCI-H460, 4.83; in the assay on CCRF-CEM it was 5.50; in the assay on CEM-VLB it was 5.35; in assay [1], 4.86.
Take `CCNC(=O)OCc1c(COC(=O)NCC)c2c3ccccc3c3ccccc3n2c1C`: the pIC50 with NCI-H1650 was 5.35; with HCT-116 it was 5.68; with NCI-H460, 5.92; in the assay on CCRF-CEM, 6.43; in the assay with CEM-VLB, 6.43; in assay [1], 5.65.
Turning to `OCc1c(CO)c(-c2ccccc2)n2c1Cc1c(c3ccccc3c3ccccc13)C2`, the negative logarithm of the IC50 (pIC50) in the assay with NCI-H1650 was 5.10; in the assay on HCT-116 it was 5.22; in the assay with NCI-H460, 5.63; in the assay on CCRF-CEM it was 5.49; in the assay on CEM-VLB, 5.44; in assay [1] it was 5.35.
In the case of `Cc1c(COC(=O)NC(C)C)c(COC(=O)NC(C)C)c2c3ccccc3c3ccccc3n12`, the pIC50 with NCI-H1650 was 5.29; in the assay with HCT-116 it was 5.67; in the assay on NCI-H460 it was 5.92; in the assay with CCRF-CEM it was 6.46; with CEM-VLB, 6.47; in assay [1] it was 5.74.
Take `OCc1c(CO)c(-c2ccc(F)cc2)n2c1Cc1c(c3ccccc3c3ccccc13)C2`: the negative-log IC50 (pIC50) is 5.19 in the assay on CCRF-CEM and 5.21 in the assay on CEM-VLB.
With `Cc1c(CO)c(CO)c2c3ccccc3c3ccccc3n12`, the pIC50 in the assay on NCI-H1650 is 5.35; in the assay on HCT-116, 5.73; in the assay with NCI-H460 it was 5.54; in the assay on CCRF-CEM, 6.04; in the assay on CEM-VLB, 6.26; in assay [1], 5.46. Besides, in the assay on dsDNA, the result was Active.
For `CC(C)NC(=O)OCc1cn2c3ccccc3c3ccccc3c2c1COC(=O)NC(C)C`, the pIC50 in the assay on NCI-H1650 was 5.02; with HCT-116 it was 5.64; in the assay with NCI-H460 it was 5.14; in the assay on CCRF-CEM, 5.76; in the assay with CEM-VLB it was 5.66; in assay [1], 4.82.
For the compound `OCc1c(CO)c2c3ccccc3c3ccccc3n2c1-c1ccccc1`, the pIC50 in the assay on NCI-H1650 is 4.41; in the assay on HCT-116 it was 4.13; in the assay with NCI-H460, 4.43; in the assay on CCRF-CEM, 5.01; in the assay on CEM-VLB, 4.96; in assay [1], 4.44.
On to `COc1ccc(-c2c(CO)c(CO)c3n2Cc2c(c4ccccc4c4ccccc24)C3)cc1`, for which the negative logarithm of the IC50 (pIC50) was 5.52 in the assay with CCRF-CEM and 5.55 with CEM-VLB.
On the same counts, the results for `COc1ccc(-c2c(COC(=O)NC(C)C)c(COC(=O)NC(C)C)c3c4ccccc4c4ccccc4n23)cc1` are 5.66 and 5.56.
Take `Cc1c(CO)c(CO)c2n1Cc1c(c3ccccc3c3ccccc13)C2`: the negative logarithm of the IC50 (pIC50) in the assay on NCI-H1650 was 5.57; with HCT-116, 5.80; in the assay with NCI-H460 it was 6.74; in the assay on CCRF-CEM it was 6.44; in the assay on CEM-VLB it was 6.47; in assay [1] it was 5.74. For the same compound, the result in the assay on dsDNA was Active.
